Values after ≈ are worked out from the molar mass of the structure shown. Values joined by “and” are separate entries in the source; they are usually repeats but may differ in a detail not shown here. Identical values can stand only once. “Also recorded” adds a separate entry of the source. Like-named read-outs stand apart in the source and are kept apart here.
Assays:
E. coli DNA gyrase [1] = biological target: T1, E. coli DNA gyrase (Escherichia coli (strain K12), UniProt P0AES4+P0AES6); assay: biochemical; type: biochemical
[2] = biological target: human DNA topoisomerase 2α (Homo sapiens (Human), UniProt P11388); assay: Human DNA topoisomerase 2α-mediated DNA cleavage assay; type: biochemical; conditions: pBR322
Sequence of human DNA topoisomerase 2α (P11388 whole entry): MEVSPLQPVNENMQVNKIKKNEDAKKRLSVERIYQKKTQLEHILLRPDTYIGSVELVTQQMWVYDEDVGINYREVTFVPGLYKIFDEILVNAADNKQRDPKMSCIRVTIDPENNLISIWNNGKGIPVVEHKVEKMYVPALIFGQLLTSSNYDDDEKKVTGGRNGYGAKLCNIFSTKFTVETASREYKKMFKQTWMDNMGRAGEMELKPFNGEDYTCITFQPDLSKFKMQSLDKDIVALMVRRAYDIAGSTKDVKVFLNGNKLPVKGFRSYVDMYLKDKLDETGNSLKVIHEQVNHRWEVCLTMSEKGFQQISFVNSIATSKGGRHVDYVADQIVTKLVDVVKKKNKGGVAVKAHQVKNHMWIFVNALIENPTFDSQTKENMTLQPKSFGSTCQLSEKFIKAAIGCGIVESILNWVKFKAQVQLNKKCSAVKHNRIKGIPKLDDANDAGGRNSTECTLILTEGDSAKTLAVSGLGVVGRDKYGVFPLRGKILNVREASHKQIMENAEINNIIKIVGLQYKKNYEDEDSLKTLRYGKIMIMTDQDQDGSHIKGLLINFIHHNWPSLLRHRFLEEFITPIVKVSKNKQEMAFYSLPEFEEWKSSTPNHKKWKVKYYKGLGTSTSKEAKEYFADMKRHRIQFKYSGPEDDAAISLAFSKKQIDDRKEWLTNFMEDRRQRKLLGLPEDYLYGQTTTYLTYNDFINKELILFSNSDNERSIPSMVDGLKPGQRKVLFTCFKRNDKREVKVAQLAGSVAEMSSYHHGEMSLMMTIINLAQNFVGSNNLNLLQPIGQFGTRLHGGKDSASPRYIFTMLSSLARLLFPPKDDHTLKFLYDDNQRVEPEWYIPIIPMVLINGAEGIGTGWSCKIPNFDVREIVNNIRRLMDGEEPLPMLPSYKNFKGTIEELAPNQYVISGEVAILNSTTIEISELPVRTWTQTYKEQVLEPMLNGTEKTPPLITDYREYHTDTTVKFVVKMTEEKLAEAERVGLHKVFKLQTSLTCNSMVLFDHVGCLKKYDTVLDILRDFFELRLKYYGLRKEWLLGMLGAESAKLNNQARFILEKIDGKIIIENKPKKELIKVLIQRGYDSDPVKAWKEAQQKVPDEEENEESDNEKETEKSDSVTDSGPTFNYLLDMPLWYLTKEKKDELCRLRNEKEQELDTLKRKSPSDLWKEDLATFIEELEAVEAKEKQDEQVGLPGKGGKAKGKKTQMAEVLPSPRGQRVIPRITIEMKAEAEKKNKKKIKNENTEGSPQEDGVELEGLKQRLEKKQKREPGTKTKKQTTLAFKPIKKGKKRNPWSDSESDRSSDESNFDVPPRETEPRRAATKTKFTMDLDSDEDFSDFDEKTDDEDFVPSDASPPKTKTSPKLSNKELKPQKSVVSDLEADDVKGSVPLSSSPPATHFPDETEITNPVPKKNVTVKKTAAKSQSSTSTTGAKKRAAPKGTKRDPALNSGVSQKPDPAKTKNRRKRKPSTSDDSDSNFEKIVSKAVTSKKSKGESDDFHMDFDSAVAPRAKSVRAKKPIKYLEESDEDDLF

E. coli DNA gyrase [3] = biological target: T1, E. coli DNA gyrase; assay: Agarose gel-based DNA gyrase inhibition assay; type: biochemical
Description: 100 ng of DNA gyrase was used to supercoil the rx pAB1 in the presence of different concentrations of a gyrase inhibitor. […] Samples were analyzed by electrophoresis in 1% w/v agarose gels followed by ethidium bromide staining and photographed under UV light.

B. subtilis (ATCC 6633) = assay: Minimum inhibitory concentration, broth microdilution; conditions: for MIC: Bacillus subtilis, ATCC6633, read-out: Minimum Inhibitory Concentration B.subtilis
[4] = biological target: human DNA topoisomerase IIα (Homo sapiens (Human), UniProt P11388); assay: Agarose gel-based inhibition assay against human DNA topoisomerase IIα; type: biochemical
Sequence of human DNA topoisomerase IIα (P11388 whole entry): as above

E. coli DNA gyrase [5] = biological target: T1, E. coli DNA gyrase; assay: DNA gyrase mediated DNA cleavage assay; type: biochemical; conditions: pBR322
Description: 250 ng of supercoiled pBR322 plasmid were incubated with 50 nM of E. coli DNA gyrase in reactions containing 35 mM Tris-HCl, 24 mM KCl, 4 mM MgCl2, 2 mM DTT, 0.1 mg/mL BSA, 6.5% glycerol, and 1.75 mM ATP, in presence of 200 µM of compounds, at 37° C. for 15 min. Then, 0.2% (w/v) of SDS and 0.1 mg/mL proteinase K were added, and samples were incubated at 37° C. for 1 h. […] Samples were examined by electrophoresis in 1% w/v agarose gel containing 0.5 µg/mL ethidium bromide and photographed under UV light.

E. coli DNA gyrase [6] = biological target: T1, E. coli DNA gyrase; assay: SDFQ-based DNA gyrase inhibition assay; type: biochemical; conditions: SDFQ-based, three independent experiments; read-out: IC50 against E. coli DNA gyrase
Description: 100 ng of DNA gyrase was used to supercoil the rx pAB1_FL905 in the presence of different concentrations of a gyrase inhibitor. […] The IC50 values were estimated by nonlinear fitting of the following equation: […]
where F is the fluorescence intensity at the x concentration of an min inhibitor. Fmax and Fmin are the maximum and minimum fluorescence of the DNA sample, respectively. P is a slope parameter.

J774 = conditions: 200 µM
MRSA = assay: Minimum inhibitory concentration, broth microdilution; conditions: for MIC: Staphylococcus aureus, MRSA
Mtb = Mtb whole cell assay (% inhibition, MIC); type: cell-based, Mycobacterium tuberculosis; conditions: for inhibition at 20 µM / MIC: Mycobacterium tuberculosis; for inhibition at 20 µM: Table 5 (same values in Table 6 at 20 µM)
in vitro [7] = conditions: mouse
S. aureus (ATCC 14775) = assay: Minimum inhibitory concentration, broth microdilution; conditions: for MIC: Staphylococcus aureus
Description: (§1) Antibacterial minimum inhibitory concentrations (MICs) were obtained from three independent experiments using broth microdilution methods in 96-well plates according to Clinical and Laboratory Standards Institute guidelines. Cells were culture from singles colonies in MHIIB medium for 24 h at 37° C. in agitation (200 RPM). The cultures were then diluted using the same media to reach an OD600 of 0.1. Then, 50 µL of the diluted cultures were added to the plates holding 50 µL of serially diluted compounds in MHIIB. The plates were incubated at 37° C. for 20 h. The starting inoculum was fixated to 10^5 colony-forming units per ml.

Mtb DNA gyrase = Mtb DNA gyrase (Mycobacterium tuberculosis (strain ATCC 25618 / H37Rv), UniProt P9WG45+P9WG47); assay: Mtb DNA gyrase inhibition assay (gel-based); type: biochemical
Outline: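 Supercoiling by 100 ng Mtb gyrase of 400 ng relaxed pAB1 in buffer with 1.75 mM ATP, pH 7.5, across inhibitor concentrations. Reactions ran 15 min at 37° C, stopped with SDS/EDTA. Products resolved on 1% agarose, ethidium bromide-stained; IC50 determined from gels.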

in vitro [8] = conditions: human
E. coli (ATCC 25922) = assay: Minimum inhibitory concentration, broth microdilution; conditions: for MIC: Escherichia coli
[9] = biological target: E. coli DNA topoisomerase IV (Escherichia coli (strain K12), UniProt P0AFI2+P20083); assay: E. coli DNA topoisomerase IV relaxation assay (gel-based); type: biochemical
Sequence of E. coli DNA topoisomerase IV (P0AFI2 whole entry, looked up): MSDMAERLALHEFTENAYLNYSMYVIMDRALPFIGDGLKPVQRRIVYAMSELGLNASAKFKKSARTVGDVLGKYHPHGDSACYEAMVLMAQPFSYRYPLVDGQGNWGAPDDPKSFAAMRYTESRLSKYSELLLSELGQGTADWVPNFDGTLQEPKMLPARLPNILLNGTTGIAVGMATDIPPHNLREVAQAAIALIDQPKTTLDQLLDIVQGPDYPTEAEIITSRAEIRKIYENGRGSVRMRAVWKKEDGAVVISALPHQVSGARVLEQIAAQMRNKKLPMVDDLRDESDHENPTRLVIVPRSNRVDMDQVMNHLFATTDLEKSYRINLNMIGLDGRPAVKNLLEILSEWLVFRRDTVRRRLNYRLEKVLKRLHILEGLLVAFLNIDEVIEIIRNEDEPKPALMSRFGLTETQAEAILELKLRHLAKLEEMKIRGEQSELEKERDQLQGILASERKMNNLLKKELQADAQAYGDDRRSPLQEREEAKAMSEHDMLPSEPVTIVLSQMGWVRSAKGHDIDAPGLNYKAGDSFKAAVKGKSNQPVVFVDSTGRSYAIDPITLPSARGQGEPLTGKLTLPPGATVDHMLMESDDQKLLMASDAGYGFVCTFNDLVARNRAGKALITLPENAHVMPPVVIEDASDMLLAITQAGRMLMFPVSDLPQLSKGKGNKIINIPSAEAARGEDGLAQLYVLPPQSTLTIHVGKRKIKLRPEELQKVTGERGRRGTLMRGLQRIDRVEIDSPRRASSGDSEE
Sequence of E. coli DNA topoisomerase IV (P20083 whole entry, looked up): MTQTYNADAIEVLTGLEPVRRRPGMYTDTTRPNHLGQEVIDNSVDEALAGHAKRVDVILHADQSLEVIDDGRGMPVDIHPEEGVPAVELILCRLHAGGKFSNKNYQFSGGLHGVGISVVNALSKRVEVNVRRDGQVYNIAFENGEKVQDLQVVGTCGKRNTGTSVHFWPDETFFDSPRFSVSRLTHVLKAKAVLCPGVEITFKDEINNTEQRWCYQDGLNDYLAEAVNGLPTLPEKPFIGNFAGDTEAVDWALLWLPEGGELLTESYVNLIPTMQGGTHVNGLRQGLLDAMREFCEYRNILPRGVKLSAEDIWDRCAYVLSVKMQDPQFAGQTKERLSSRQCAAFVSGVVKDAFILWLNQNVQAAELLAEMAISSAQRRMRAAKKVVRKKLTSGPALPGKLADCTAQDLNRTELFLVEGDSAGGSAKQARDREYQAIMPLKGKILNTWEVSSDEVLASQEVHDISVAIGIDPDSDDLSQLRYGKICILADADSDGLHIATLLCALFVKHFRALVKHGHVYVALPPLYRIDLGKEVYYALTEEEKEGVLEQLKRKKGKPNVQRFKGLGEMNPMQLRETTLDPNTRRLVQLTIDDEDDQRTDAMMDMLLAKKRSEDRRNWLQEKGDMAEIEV
Description: Relaxation assays by E. coli DNA topoisomerase IV and the ATPase assays were performed. […] Lane 1 is supercoiled plasmid pAB1. […] The supercoiled, fluorescently-labeled plasmid pAB1_FL905 was used.

[10] = tested on: NCI panel of 60 cancer cell lines; conditions: up to 1 mM; results of NCI DTP; cited from earlier work
M. abscessus = assay: MIC against M. abscessus; type: cell-based, Mycobacterium abscessus; conditions: Mycobacteroides abscessus
E. coli DNA gyrase [11] = biological target: T1, E. coli DNA gyrase; conditions: known inhibitors of the LOPAC library; read-out: inhibition IC50 against E. coli DNA gyrase; cited from earlier work
[12] = IC50 against E. coli DNA gyrase
[13] = IC50 (µM) EC, Table 5, E. coli gyrase
[14] = read-out: Minimum Inhibitory Concentration S.aureus MRSA
[15] = ATCC14775, read-out: MIC (µM) SA
[16] = ATCC14775, read-out: Minimum Inhibitory Concentration S.aureus
[17] = Table 5, Mtb gyrase, read-out: IC50 (µM) Mtb
[18] = ATCC14775, read-out: MIC (µM) Sa
[19] = Table 10, read-out: IC50 (µM) Mtb gyrase

Description for E. coli imp: as §1

With `CC(OC(=O)c1cc(O)c2ccccc2c1O)C(=O)Nc1ccc(C(N)=O)cc1` (centres unmarked) [Compound 40, 1-[(4-carbamoylphenyl)carbamoyl]ethyl 1,4-dihydroxynaphthalene-2-carboxylate] the IC50 (E. coli DNA gyrase [1]; IC50 (50-200 µM), bin of Table 2) was 50 to 200 µM, the IC50 (E. coli DNA gyrase [1]; [12]) was 50 µM and the “human topoisomerase 2α-mediated DNA nicks and double-stranded breaks” value [2] was “does not cause”. The “inhibition of E. coli DNA gyrase activities” value (E. coli DNA gyrase [3]; 200 µM of compounds) was “completely inhibited”, the “anti Bacillu subtilis activities” value (B. subtilis (ATCC 6633)) was 39 µg/mL and the MIC (B. subtilis (ATCC 6633)) was 100 µM (≈ 39.4 µg/mL). The “inhibition of human DNA topoisomerase IIα” value ([4]; gallates at 100 µM) was “does not inhibit”, the “E. coli DNA gyrase-mediated DNA breaks and nicking” value (E. coli DNA gyrase [5]) was “causes DNA gyrase-mediated double stranded DNA breaks and DNA nicking; also recorded: causes gyrase-mediated DNA double-stranded breaks and single-stranded nicks” and the IC50 (E. coli DNA gyrase [6]) was 47.6 ± 3.7 µM.
In the case of `Cc1c(CCC(=O)O)c(=O)oc2c(C)c3occ(-c4ccc(-c5ccccc5)cc4)c3cc12` [Compound 119], the “cytotoxicity J774” value (J774) is reported as “no cytotoxicity”, the IC50 (E. coli DNA gyrase [1]; [13]) is reported as 7.7 µM and the MIC (MRSA; read-out: MIC (µM) MRSA) is reported as 0.8 µM (≈ 0.351 µg/mL). For the same compound, the MIC (MRSA; [14]) was 0.78 µM (≈ 0.342 µg/mL), the “activity against Mtb” value (Mtb) was “most active” and the inhibition at 20 µM (Mtb) was 70.4%. The IC50 (in vitro [7]) was greater than 200 µM, the MIC (S. aureus (ATCC 14775); [15]) was 0.8 µM (≈ 0.351 µg/mL) and the MIC (S. aureus (ATCC 14775); [16]) was 0.78 µM (≈ 0.342 µg/mL). The “inhibition of Mtb DNA gyrase activities” value (Mtb DNA gyrase) was “potent Mtb gyrase inhibitors”, the IC50 (Mtb DNA gyrase; [17]) was 16 µM and the “inhibition of E. coli DNA gyrase activities” value (E. coli DNA gyrase [3]; 50 µM of compounds) was “completely inhibited”. It also gave an IC50 [4] of 133 µM and an IC50 (in vitro [8]) greater than 200 µM.
With `Cc1c(CCC(=O)O)c(=O)oc2c(C)c3occ(-c4ccc5ccccc5c4)c3cc12` [Compound 124] the “cytotoxicity J774” value (J774) was “no cytotoxicity”, the IC50 (E. coli DNA gyrase [1]; [13]) was 5.5 µM and the MIC (MRSA; read-out: MIC (µM) MRSA) was 1.6 µM (≈ 0.66 µg/mL). For the same compound, the MIC (MRSA; [14]) was 1.56 µM (≈ 0.643 µg/mL), the “activity against Mtb” value (Mtb) was “most active” and the inhibition at 20 µM (Mtb) was 80.4%. For the same compound, the IC50 (in vitro [7]) was greater than 200 µM, the MIC (S. aureus (ATCC 14775); [15]) was 1.6 µM (≈ 0.66 µg/mL) and the MIC (S. aureus (ATCC 14775); [16]) was 1.56 µM (≈ 0.643 µg/mL). For the same compound, the “inhibition of Mtb DNA gyrase activities” value (Mtb DNA gyrase) was “potent Mtb gyrase inhibitors”, the IC50 (Mtb DNA gyrase; [17]) was 3 µM and the “inhibition of E. coli DNA gyrase activities” value (E. coli DNA gyrase [3]; 50 µM of compounds) was “completely inhibited”. It also gave an IC50 [4] of 117 µM and an IC50 (in vitro [8]) greater than 200 µM.
With `N=C(N)Nc1nc(-c2ccccc2)c2cc(Cl)ccc2n1` [Compound 154, N-(6-chloro-4-phenylquinazolin-2-yl)guanidine] the IC50 (E. coli DNA gyrase [1]; [12]) was 7 µM, the MIC (MRSA; [14]) was 25 µM (≈ 7.44 µg/mL) and the “human topoisomerase 2α-mediated DNA nicks and double-stranded breaks” value [2] was “causes the human topoisomerase 2a-mediated DNA nicks and double-stranded breaks”. For the same compound, the MIC (S. aureus (ATCC 14775); [16]) was 25 µM (≈ 7.44 µg/mL), the “inhibition of E. coli DNA gyrase activities” value (E. coli DNA gyrase [3]; 50 µM of compounds) was “completely inhibited” and the MIC (B. subtilis (ATCC 6633)) was 25 µM (≈ 7.44 µg/mL). For the same compound, the MIC (E. coli (ATCC 25922); ATCC25922, read-out: Minimum Inhibitory Concentration E. coli, Tables 3a-3c) was 50 µM (≈ 14.9 µg/mL), the IC50 [4] was roughly 50 µM and the “E. coli DNA gyrase-mediated DNA breaks and nicking” value (E. coli DNA gyrase [5]) was “causes the gyrase-mediated DNA double-stranded breaks and single-stranded nicks”. The “inhibition of E. coli DNA topoisomerase IV” value [9] was “inhibits” and the IC50 (E. coli DNA gyrase [6]) was 3.1 ± 0.7 µM.
For `C[n+]1c(-c2ccc(/C=C/C=N/NC(=O)c3ccc(C(=O)N/N=C/c4ccc(-c5cn6ccccc6[n+]5C)cc4)cc3)cc2)cn2ccccc21` [Compound 261], the “cytotoxicity against the NCI panel of 60 cancer cell lines” value [10] is given as “no cytotoxicity”, the MIC (Mtb) is given as 109 µM and the MIC (S. aureus (ATCC 14775); [18]) is given as greater than 200 µM. The IC50 (Mtb DNA gyrase; [19]) was 9.3 µM, the MIC (E. coli (ATCC 25922); ATCC25922, read-out: MIC (µM) Ec, E. coli strain ATCC25922) was 50 µM and the IC50 (in vitro [8]) was greater than 200 µM. For the same compound, the MIC (M. abscessus) was 22.9 µM.
For `C[n+]1c(-c2ccc(NC(=O)c3ccc(C(=O)Nc4ccc(-c5cn6ccccc6[n+]5C)cc4)cc3)cc2)cn2ccccc21` [Compound 263], the “cytotoxicity against the NCI panel of 60 cancer cell lines” value [10] is given as “no cytotoxicity”, the MIC (Mtb) is given as 11.3 µM and the MIC (S. aureus (ATCC 14775); [18]) is given as 0.39 µM. For the same compound, the IC50 (Mtb DNA gyrase; [19]) was 7.7 µM, the IC50 (in vitro [8]) was greater than 200 µM and the MIC (M. abscessus) was greater than 200 µM.
In the case of `CCn1cc(C(=O)O)c(=O)c2ccc(C)nc21` [nalidixic acid], the IC50 (E. coli DNA gyrase [11]) is listed as greater than 30 µM.
For `CCn1cc(C(=O)O)c(=O)c2cc3c(cc21)OCO3` [oxolinic acid], the IC50 (E. coli DNA gyrase [11]) is given as greater than 30 µM.
With biphenyl gallate the “MIC MRSA ATCC 33591” value (MRSA) was 50 µM, the “MIC S. aureus (MRSA) ATCC BAA44” value (MRSA) was 16 µg/mL and the “MIC S. aureus ATCC 14775” value (S. aureus (ATCC 14775)) was 16 µg/mL and 50 µM. The “MIC E. coli imp” value (E. coli imp; Table 7) was 36.43 µg/mL, the “MIC E. coli imp BAS3023” value (E. coli imp; Table 9) was 200 µM and the “MIC B. subtilis ATCC 6633” value (B. subtilis (ATCC 6633)) was 16 µg/mL and 50-100 µM. For the same compound, the “MIC E coli ATCC 25922” value (E. coli (ATCC 25922)) was greater than 200 µM and the “MIC E. coli ATCC 25922” value (E. coli (ATCC 25922)) was 517.29 µg/mL.
